Measured values published in the Kinase Knowledgebase extract (Sharma et al. 2016).

target: EGFR (human) (UniProt P00533)
Sequence (P00533 whole entry, looked up): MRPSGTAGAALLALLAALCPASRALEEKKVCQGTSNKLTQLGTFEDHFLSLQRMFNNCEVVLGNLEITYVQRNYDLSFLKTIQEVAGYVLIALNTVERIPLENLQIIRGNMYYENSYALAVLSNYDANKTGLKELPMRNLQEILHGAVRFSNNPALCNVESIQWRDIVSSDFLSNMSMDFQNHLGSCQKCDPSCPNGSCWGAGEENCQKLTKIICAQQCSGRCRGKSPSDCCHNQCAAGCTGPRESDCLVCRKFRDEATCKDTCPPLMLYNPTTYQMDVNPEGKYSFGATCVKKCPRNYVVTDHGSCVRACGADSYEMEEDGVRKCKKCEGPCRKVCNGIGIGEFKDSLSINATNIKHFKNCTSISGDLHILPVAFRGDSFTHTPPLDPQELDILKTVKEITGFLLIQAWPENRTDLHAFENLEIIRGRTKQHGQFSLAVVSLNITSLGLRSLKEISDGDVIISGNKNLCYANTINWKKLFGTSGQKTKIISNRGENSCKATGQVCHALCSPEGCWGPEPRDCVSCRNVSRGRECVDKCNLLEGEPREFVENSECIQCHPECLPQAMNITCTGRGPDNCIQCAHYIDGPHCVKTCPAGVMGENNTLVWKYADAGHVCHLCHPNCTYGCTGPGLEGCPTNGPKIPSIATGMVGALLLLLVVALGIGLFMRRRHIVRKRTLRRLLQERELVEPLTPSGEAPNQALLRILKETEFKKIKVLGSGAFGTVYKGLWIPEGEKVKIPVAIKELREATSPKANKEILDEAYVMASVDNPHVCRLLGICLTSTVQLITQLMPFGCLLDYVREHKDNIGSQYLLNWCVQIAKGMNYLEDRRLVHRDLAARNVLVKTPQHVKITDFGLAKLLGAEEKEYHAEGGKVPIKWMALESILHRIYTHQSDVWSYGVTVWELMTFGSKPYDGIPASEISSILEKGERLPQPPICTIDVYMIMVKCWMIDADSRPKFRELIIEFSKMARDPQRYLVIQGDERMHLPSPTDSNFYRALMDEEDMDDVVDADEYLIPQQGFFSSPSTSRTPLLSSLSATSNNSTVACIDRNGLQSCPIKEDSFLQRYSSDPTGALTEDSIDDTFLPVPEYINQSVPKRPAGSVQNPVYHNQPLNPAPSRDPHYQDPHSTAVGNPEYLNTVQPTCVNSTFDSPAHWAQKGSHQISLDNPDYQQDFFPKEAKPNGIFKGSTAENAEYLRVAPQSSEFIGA

| IC50 [nM] | SMILES |
| --- | --- |
| 100 to 1000 | CCc1cnc(NC(=O)c2ccc(-c3nn([C@@H]4CCN(C(=O)/C=C/CN(C)C5CC5)C4)c4ncnc(N)c34)cc2)s1 |
| > 10 | CN(C/C=C/C(=O)N1CC[C@@H](n2nc(-c3ccc(C(=O)Nc4ncco4)cc3)c3c(N)ncnc32)C1)C1CC1 |
| < 1 | CN(C/C=C/C(=O)N1CC[C@@H](n2nc(-c3ccc(C(=O)Nc4nccs4)cc3)c3c(N)ncnc32)C1)C1CC1 |
| 100 to 1000 | CC(C)c1cnc(NC(=O)c2ccc(-c3nn([C@@H]4CCN(C(=O)/C=C/CN(C)C5CC5)C4)c4ncnc(N)c34)cc2)s1 |
| 1 to 100 | CN(C/C=C/C(=O)N1CC[C@@H](n2nc(-c3ccc(C(=O)Nc4ncc(C#N)s4)cc3)c3c(N)ncnc32)C1)C1CC1 |
| 100 to 1000 | CN(C/C=C/C(=O)N1CC[C@@H](n2nc(-c3ccc(C(=O)Nc4ncc(C(F)(F)F)s4)cc3)c3c(N)ncnc32)C1)C1CC1 |
| < 1 | CN(C/C=C/C(=O)N1CC[C@@H](n2nc(-c3ccc(C(=O)Nc4ncc(C5CC5)s4)cc3)c3c(N)ncnc32)C1)C1CC1 |
| 100 to 1000 | CCCc1cnc(NC(=O)c2ccc(-c3nn([C@@H]4CCN(C(=O)/C=C/CN(C)C5CC5)C4)c4ncnc(N)c34)cc2)s1 |
| 100 to 1000 | CN(C/C=C/C(=O)N1CC[C@@H](n2nc(-c3ccc(C(=O)Nc4ccccn4)cc3)c3c(N)ncnc32)C1)C1CC1 |

Further lines, the molecule ahead of its results:

| SMILES | IC50 [nM] |
| --- | --- |
| CC(C)c1ccnc(NC(=O)c2ccc(-c3nn([C@@H]4CCN(C(=O)/C=C/CN(C)C)C4)c4ncnc(N)c34)cc2)c1 | 100 to 1000 |
| Nc1ncnc2c1c(-c1ccc(C(=O)Nc3cc(C(F)(F)F)ccn3)cc1)nn2[C@@H]1CCN(C(=O)/C=C/CNC2CC2)C1 | 1 to 100 |
| CCCc1ccnc(NC(=O)c2ccc(-c3nn([C@@H]4CCN(C(=O)/C=C/CN(C)C5CC5)C4)c4ncnc(N)c34)cc2)c1 | 100 to 1000 |
| CC#CC(=O)N[C@H]1CC[C@H](n2nc(-c3ccc(C(=O)Nc4cc(C(F)(F)F)ccn4)cc3)c3c(N)ncnc32)CC1 | 100 to 1000 |
| CN(C)C/C=C/C(=O)N1CC[C@@H](n2nc(-c3ccc(C(=O)Nc4cc(C#N)ccn4)cc3)c3c(N)ncnc32)C1 | 100 to 1000 |
| Cc1ccnc(NC(=O)c2ccc(-c3nn([C@@H]4CCN(C(=O)/C=C/CNC5CC5)C4)c4ncnc(N)c34)cc2)c1 | 100 to 1000 |
| CN(C)C/C=C/C(=O)N1CC[C@@H](n2nc(-c3ccc(C(=O)Nc4ccccn4)cc3)c3c(N)ncnc32)C1 | 100 to 1000 |
| Cc1ccnc(NC(=O)c2ccc(-c3nn([C@H]4CC[C@H](NC(=O)/C=C/CN(C)C5CC5)CC4)c4ncnc(N)c34)cc2)c1 | 100 to 1000 |
| CN(C/C=C/C(=O)N[C@H]1CC[C@H](n2nc(-c3ccc(C(=O)Nc4cc(C(F)(F)F)ccn4)cc3)c3c(N)ncnc32)CC1)C1CC1 | 100 to 1000 |
| Cc1ccnc(NC(=O)c2ccc(-c3nn([C@H]4CC[C@H](NC(=O)/C=C/CN(C)C)CC4)c4ncnc(N)c34)cc2)c1 | 100 to 1000 |
| CNC/C=C/C(=O)N1CC[C@@H](n2nc(-c3ccc(C(=O)Nc4cc(C)ccn4)cc3)c3c(N)ncnc32)C1 | 100 to 1000 |
| CNC/C=C/C(=O)N1CC[C@@H](n2nc(-c3ccc(C(=O)Nc4cc(C(F)(F)F)ccn4)cc3)c3c(N)ncnc32)C1 | 1 to 100 |
| CN(C)C/C=C/C(=O)N1CC[C@@H](n2nc(-c3ccc(C(=O)Nc4cc(C(F)(F)F)ccn4)cc3)c3c(N)ncnc32)C1 | 100 to 1000 |
| CN(C/C=C/C(=O)N1CC[C@@H](n2nc(-c3ccc(C(=O)Nc4cc(C(F)(F)F)ccn4)cc3)c3c(N)ncnc32)C1)C1CC1 | 100 to 1000 |
